From ChEMBL document CHEMBL2202997, “Ex vivo study of the vasorelaxant activity induced by phenanthrene derivatives isolated from Maxillaria densa” (J Nat Prod, 2012)
The source made the active and inactive calls. No cut-off for these calls is given here.

Experiments:
[1] = test system: Aorta; experiment: Vasorelaxant activity in Wistar rat aorta with endothelium assessed as inhibition of norepinephrine-induced contraction relative to control; format: functional
[2] = test system: Aorta; experiment: Vasorelaxant activity in Wistar rat aorta with endothelium assessed as inhibition of norepinephrine-induced contraction; format: functional, tissue-based
[3] = test system: Aorta; experiment: Vasorelaxant activity in Wistar rat aorta without endothelium assessed as inhibition of norepinephrine-induced contraction relative to control; format: functional
[4] = test system: Aorta; experiment: Vasorelaxant activity in Wistar rat aorta without endothelium assessed as inhibition of norepinephrine-induced contraction; format: functional, tissue-based
[5] = test system: Aorta; experiment: Vasorelaxant activity in Wistar rat endothelium-denude aorta assessed as inhibition of norepinephrine-induced contraction in presence of soluble guanylyl cyclase inhibitor ODQ; format: functional, tissue-based
[6] = test system: Aorta; experiment: Induction of relaxation in Wistar rat endothelium-denuded aorta in presence of potassium channel blocker glibenclamide; format: functional, tissue-based
[7] = test system: Aorta; experiment: Induction of relaxation in Wistar rat endothelium-denuded aorta in presence of potassium channel blocker TEA; format: functional, tissue-based
[8] = test system: Aorta; experiment: Vasorelaxant activity in Wistar rat endothelium-denuded aorta assessed as inhibition of CaCl2-induced contraction; format: functional, tissue-based
[9] = test system: Aorta; experiment: Vasorelaxant activity in Wistar rat aorta without endothelium assessed as inhibition of extracellular Ca2+-induced contractions activated by potassium chloride-induced contraction relative to control; format: functional
[10] = test system: Aorta; experiment: Vasorelaxant activity in Wistar rat aorta without endothelium assessed as inhibition of extracellular Ca2+-induced contractions activated by potassium chloride-induced contraction; format: functional, tissue-based
[11] = test system: Aorta; experiment: Vasorelaxant activity in Wistar rat endothelium-denuded aorta assessed as inhibition of FPL-64176-induced contraction at 11 to 63 uM; format: functional, tissue-based

| SMILES | Efficacy [1] | EC50 [2] | Efficacy [3] | EC50 [4] | inhibition [4] | inhibition [2] | inhibition [5] | Activity [6] | Activity [7] | inhibition [8] | Efficacy [9] | EC50 [10] | inhibition [11] |
| --- | --- | --- | --- | --- | --- | --- | --- | --- | --- | --- | --- | --- | --- |
| C[N+](C)(C)CCOC(N)=O.[Cl-] [CARBACHOL] | 74.06% | 0.41 µM |  |  |  |  |  |  |  |  |  |  |  |
| COc1c(O)cc2c(c1OC)-c1ccc(O)cc1CC2 [ERIANTHRIDIN] | 85.47% | 142 µM | 82.4% | 167 µM | Dose-dependent effect | Dose-dependent effect |  |  |  |  |  |  |  |
| COc1c(O)cc2cc(OC)c3cccc(O)c3c2c1OC [FIMBRIOL A] | 83.05% | 234 µM | 73.86% | 288 µM | Dose-dependent effect | Dose-dependent effect |  |  |  |  |  |  |  |
| COc1c(O)cc2cc(OC)c3cc(O)ccc3c2c1OC [GYMNOPUSIN] | 94% | 63 µM | 98.18% | 70.2 µM | Dose-dependent effect | Dose-dependent effect | Active | inactive | inactive | Active | 71.3% | 119 µM | Dose-dependent effect |
| COC(=O)C1=C(C)NC(C)=C(C(=O)OC)C1c1ccccc1[N+](=O)[O-] [NIFEDIPINE] |  |  | 97% | 4.31 µM |  |  |  |  |  |  |  |  |  |
